Legend:
prostaglandin D receptor = molecular target: T1, prostaglandin D receptor (Homo sapiens, UniProt Q13258); test: Antagonism by BW A868C of the suppression of ADP-induced human platelet aggregation; format: cell-based; conditions: final concentration 95.7 nmol/L, human PRP, ADP 3 μmol/L
T1 construct: separate the supernatant (PRP, or platelet-rich plasma); endogenous in cells; host or cells: human platelets (platelet-rich plasma from healthy male donors)
T1 sequence (Q13258 1-359): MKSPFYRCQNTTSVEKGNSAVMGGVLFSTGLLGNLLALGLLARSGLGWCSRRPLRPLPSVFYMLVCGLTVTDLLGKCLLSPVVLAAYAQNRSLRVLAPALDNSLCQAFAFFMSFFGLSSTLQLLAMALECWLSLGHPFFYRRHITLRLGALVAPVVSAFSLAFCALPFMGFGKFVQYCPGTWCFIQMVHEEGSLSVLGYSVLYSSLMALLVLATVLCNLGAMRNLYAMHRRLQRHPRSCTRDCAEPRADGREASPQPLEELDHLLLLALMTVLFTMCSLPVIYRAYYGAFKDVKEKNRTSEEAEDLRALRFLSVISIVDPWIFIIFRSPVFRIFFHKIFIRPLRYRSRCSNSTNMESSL
Procedure: The prostaglandin D receptor selective antagonist used in the test was ((+/−)-3-benzyl-5-(6-carboxyhexyl)-1-(2-cyclohexyl-2-hydroxyethylamino)-hydantoin) (hereunder designated BW A868C) (Sigma-Aldrich Japan K.K.)
BW A868C was diluted with ethanol to final concentrations of 0.03 μmol/L, 0.1 μmol/L, 0.3 μmol/L, 1 μmol/L, 3 μmol/L and 10 μmol/L.
Compound No. 7 and PGD2 were diluted with ethanol to 287 nmol/L and 300 nmol/L, respectively, for subsequent use.
Blood was taken from the cubital veins of human healthy males and sampled into a tube containing 3.13% sodium citrate. The blood sample was centrifuged at 1,000 rpm for 10 minutes at 20° C. to separate the supernatant (PRP, or platelet-rich plasma) and the residue was further centrifuged at 3,000 rpm for 10 minutes at 20° C. to separate the supernatant (PPP, or platelet-poor plasma). The platelet count of PRP was appropriately diluted with PPP to 30×10^4 platelets/μL for subsequent use.
Platelet aggregation was measured with a platelet aggregation measuring instrument (PAM-8C; MC MEDICAL Co., LTD.) by the Born method (Nature, vol. 194, p. 927, 1962). A portion (273 μL) of PRP (for the BW A868C groups, 1 μL of BW A868C was added at varying concentrations) was preincubated at 37° C. for 3 minutes with stirring at 1,000 rpm. After the preincubation, 1 μL of ethanol or a test substance (compound No. 7: final concentration at 95.7 nmol/L; PGD2: final concentration at 1000 nmol/L) was added and the mixture was incubated at 37° C. for 3 minutes with stirring at 1000 rpm. After the incubation, 25 μL of ADP (final concentration at 3 μmol/L) was added to induce platelet aggregation and a maximum percent aggregation for 5 minutes was measured.

BALB/c male mice = test: Mouse skin's barrier function, treatment test, TEWL (Test Example 5); format: in vivo; conditions: barrier destroyed with acetone/diethyl ether; 0.01% in ethanol, 100 μL, once a day for 2 days
Procedure: Six-week-old BALB/c male mice in groups of eight were shaven in a rostral dorsolateral area of 4 cm^2 (2 cm×2 cm) with electric clippers and the shaven area was covered for 60 seconds with an absorbent cotton (2 cm×2 cm) impregnated with a 1:1 liquid mixture of acetone and diethyl ether. This treatment for destroying the skin's barrier function was performed for 3 consecutive days on once-a-day basis. Starting on the day next to completion of the treatment for barrier destruction at day 3, a solvent (ethanol, 100 μL) or a drug dissolved in the solvent (compound No. 7, PGD2, PGF2α, or PGE1, all being at 0.01% in an amount of 100 μL) was applied to the barrier destroyed site for 2 days on once-a-day basis. On the day next to the second application of the solvent or drug, the transepidermal water loss (TEWL) at the same site was measured with Tewameter (TM210 of Courage & Khazawa, Germany) to evaluate the drug's action.

[1] = system: NC mice induced to manifest dermatitis; test: Dermatitis score in dermatitis manifesting NC mouse models (Test Example 2); format: in vivo; conditions: 0.01% in 100% ethanol, 200 μl on dorsal back, seven times a week for 4 weeks
Procedure: By suitably modifying a method known to the skilled artisan (Jpn. J. Pharmacol. 76, 175-183 (1998) Jun Hiroi, et al. Effects of Tacrolimus Hydrate (FK-506) Ointment on Spontaneous Dermatitis in NC/Nga Mice), the following test was conducted in order to confirm the antipruritic effect of compounds of the invention.
Animals: Four-week old SPF NC mice (male) were purchased from Japan SLC; right after their arrival, the SPF NC mice were kept together with dermatitis manifesting male NC mice (older than 20 weeks) for 2 weeks under the following conditions so as to induce itch-evoked scratching behavior. […]
Drug administration: To the dorsal backs of the 20-wk NC mice that were induced to manifest dermatitis as the result of cohabitation with the spontaneous dermatitis manifesting NC mice, 100% ethanol, compound No. 7 (0.01%) dissolved in 100% ethanol or tacrolimus (0.1%) dissolved in 100% ethanol was applied from an Eppendorf pipette in 200-μl doses seven times a week for a period of 4 weeks. […] Dermatitis score: Dermatitic symptoms were observed and measured once a week. […]

O=C(O)CSCCCC[C@@H]1[C@@H](C#C[C@@H](O)C2CCCCC2)[C@H](O)C[C@H]1Cl [Compound No. 7]
platelet aggregation suppressing action compared with control group (ethanol) (prostaglandin D receptor): significant platelet aggregation suppressing action | transepidermal water loss (TEWL) compared to the solvent-applied control group (BALB/c male mice): significant decrease in TEWL | dermatitis score suppressing action compared to the vehicle group [1]: significant dermatitis score suppressing action
